Measurements taken from patent publication US20120070486A1, “METHODS AND COMPOSITIONS RELATED TO PREFOLDIN AND ITS REGULATION” (priority 2007, published 2012).

Assays:
[1] = test system: microtubule cytoskeleton of SKOV3 cells; experiment: indirect immunofluorescent staining for α-tubulin of the microtubule cytoskeleton after siRNA transfection; format: cell-based, human; conditions: 48 hours following transfection, fluorescent microscopy, compared to control siRNA
Description: RNA interference: PFDN4 siRNA (sense: […] (SEQ ID NO:6); antisense: […] (SEQ ID NO:7)) and AllStars Negative Control siRNA were purchased from Qiagen (Valencia, Calif.). HeyA8 and SKOV3 were grown to 50% confluence prior to transfection with control or PFDN4 siRNA using Lipofectamine 2000 (Invitrogen, Valencia, Calif.) following manufacturer's instruction. Cells were typically harvested for analysis 48-72 hours following transfection. Immunofluorescent staining HeyA8 and SKOV3 cells were grown on glass coverslips in 24-well plates for 24 hours prior to transfection with either control or PFDN4 siRNA, and cultured for an additional 48 hours. Media was then aspirated and replaced with 0.5 mL of 4% paraformaldehyde for 30 minutes. Cells were then incubated with 100 mM glycine for 5 minutes, washed once with PBS and then incubated with 0.2% TritonX-100 in PBS for 10 minutes. Coverslips were washed thrice in PBS and then blocked for 30 minutes in 10% goat serum in PBS. Coverslips were then incubated with a 1:2000 dilution of anti-α-tubulin antibodies for 1.5 hours at room temperature. Slides were washed three times with PBS and then incubated for 1 hour with Alexa 555-labelled anti-rabbit secondary antibodies. Coverslips were washed twice with PBS and finally mounted in anti-fade mounting media and then visualized by fluorescence microscopy. […]

[2] = test system: PFDN4 protein; experiment: siRNA mediated silencing of PFDN4 protein expression in SKOV3 cells (western blot); format: cell-based, human; conditions: in vitro, by 48 hours
Description: Immunoprecipitation and Western Blot Analysis: Each 10 cm plate of cells was lysed in 1 mL NP-40 lysis buffer (50 mM Hepes, pH 7.25, 150 mM NaCl, […], 50 mM NaF, 2 mM EDTA, 1 mM sodium orthovanadate, 1% NP-40), supplemented with Roche complete protease inhibitors (Roche Diagnostics, Indianapolis, Ind.). Cell lysates were cleared by centrifugation at 14000 g for 15 minutes at 4° C. Protein concentration was determined using the BCA Protein Assay (Pierce Biotechnology, Rockford, Ill.). 1 mg total protein lysate was combined with 50 μL of 20% Protein A Sepharose CL4B beads (Amersham Biosciences, Piscataway, N.J.) and 1 μg of anti-PFDN4 antibody. […]
(§1) RNA interference: PFDN4 siRNA (sense: […] (SEQ ID NO:6); antisense: […] (SEQ ID NO:7)) and AllStars Negative Control siRNA were purchased from Qiagen (Valencia, Calif.). […] Coverslips were washed twice with PBS and finally mounted in anti-fade mounting media and then visualized by fluorescence microscopy.
To determine the effect of PFDN4 downregulation in ovarian cancer in vitro, the inventors utilized RNA interference (RNAi) technology to silence PFDN4 expression in ovarian cancer cells. […] Using an RT-PCR based screen, the inventors detected a decrease in PFDN4 mRNA within 4 hours following transfection, with greater than 90% silencing observed by 24 hours following transfection (FIG. 5).

[3] = test system: PFDN4 mRNA; experiment: RT-PCR screen of siRNA mediated gene silencing of PFDN4 in SKOV3 cells; format: cell-based, human
Description: RT-PCR: RT-PCR RNA was extracted from ovarian cancer cell lines using TRIzo10 (Invitrogen, Carlsbad, Calif.) as per manufacturer's instructions. 2 μg of total mRNA was reverse transcribed using the Superscript first strand kit (Superscript, Invitrogen, Carlsbad, Calif.), and 2 μL from each reaction was subjected to PCR using standard techniques. PFDN4 primers generated a 413 by product (PFDN4 forward: […] (SEQ ID NO:1); PFDN4 reverse: […] (SEQ ID NO:2)). GAPDH primers generated an approximately 800 by product (GAPDH forward:[…] (SEQ ID NO:3); GAPDH reverse: […] (SEQ ID NO:4)). Semi-quantitative cycling conditions were optimized to the following program: 98° C. for 2 minutes followed by 22 cycles at 95° C. for 30 seconds, 55° C. for 30 seconds and 72° C. for 60 seconds, followed by a final cycle at 72° C. for 5 minutes. PCR products were visualized by agarose gel electrophoresis.
as §1, with “Calif.). HeyA8 and SKOV3 were grown to 50% confluence prior to transfection with control or PFDN4 siRNA using Lipofectamine 2000 (Invitrogen, Valencia, Calif.) following manufacturer's instruction.” for “Calif.).”, “microscopy. […]” for “microscopy.”

[4] = test system: SKOV3-TR cell line; experiment: docetaxel IC50 in chemoresistant SKOV3-TR cell line; format: cell-based; conditions: Homo sapiens, SKOV3TR
[5] = test system: SKOV3 cell line; experiment: docetaxel IC50 in chemosensitive parental SKOV3 cell line; format: cell-based; conditions: Homo sapiens, SK-OV-3, one range printed for HeyA8 and SKOV3
[6] = test system: HeyA8 cell line; experiment: docetaxel IC50 in chemosensitive parental HeyA8 cell line; format: cell-based; conditions: Homo sapiens, HEY A8, one range printed for HeyA8 and SKOV3
[7] = test system: HeyA8-MDR cell line; experiment: docetaxel IC50 in chemoresistant HeyA8-MDR cell line; format: cell-based; conditions: Homo sapiens

| IC50 [4] | IC50 [7] | Compound | morphology of microtubule cytoskeleton [1] | down-regulation in PFDN4 protein production [2] | time to detected decrease in PFDN4 mRNA following transfection [3] | PFDN4 mRNA silencing ([3]; by 24 hours following transfection) | IC50 [5] | IC50 [6] |
| --- | --- | --- | --- | --- | --- | --- | --- | --- |
| – | – | PFDN4 siRNA: siRNA, sense UUCAGCGAGUGUUAGCAGATT (SEQ ID NO:6), antisense UCUGCUAACACCGCUGAATT (SEQ ID NO:7), purchased from Qiagen (chemistry not given here) | less organized (FIG. 7B) and more condensed | detectable down-regulation | ≤ 4 h | greater than 90% | – | – |
| ≥ 250 nM | ≥ 250 nM | CC(=O)O[C@@]12CO[C@@H]1C[C@H](O)[C@@]1(C)C(=O)[C@H](O)C3=C(C)[C@@H](OC(=O)[C@H](O)[C@@H](NC(=O)OC(C)(C)C)c4ccccc4)C[C@@](O)([C@@H](OC(=O)c4ccccc4)[C@H]21)C3(C)C [docetaxel] | – | – | – | – | 1 to 6.2 nM | 1 to 6.2 nM |
